The target of assay [1] is Dual specificity tyrosine-phosphorylation-regulated kinase 1A (Homo sapiens, UniProt Q13627).
Assay [2] has as its target T1, Tyrosine-protein kinase Tec (Homo sapiens, UniProt P42680).
T1 sequence (P42680 whole entry): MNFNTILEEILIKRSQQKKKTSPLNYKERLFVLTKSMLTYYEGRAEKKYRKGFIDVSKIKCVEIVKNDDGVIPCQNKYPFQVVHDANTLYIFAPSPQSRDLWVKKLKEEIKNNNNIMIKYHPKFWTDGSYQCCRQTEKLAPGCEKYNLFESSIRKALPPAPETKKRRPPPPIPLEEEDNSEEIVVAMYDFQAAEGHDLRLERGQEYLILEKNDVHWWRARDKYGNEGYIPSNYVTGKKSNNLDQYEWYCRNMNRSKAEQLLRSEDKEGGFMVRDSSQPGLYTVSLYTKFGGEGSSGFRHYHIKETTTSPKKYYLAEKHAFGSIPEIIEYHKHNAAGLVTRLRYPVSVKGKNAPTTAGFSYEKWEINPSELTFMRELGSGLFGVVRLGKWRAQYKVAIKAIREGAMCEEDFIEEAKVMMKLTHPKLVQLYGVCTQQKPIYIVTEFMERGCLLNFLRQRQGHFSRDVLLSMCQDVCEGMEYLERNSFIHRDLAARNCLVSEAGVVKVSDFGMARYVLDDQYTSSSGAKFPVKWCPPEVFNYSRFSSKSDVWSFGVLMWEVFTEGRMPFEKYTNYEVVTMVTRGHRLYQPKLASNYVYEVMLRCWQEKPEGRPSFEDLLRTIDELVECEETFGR

The target in assay [3] is Chromodomain-helicase-DNA-binding protein 4 (Homo sapiens, UniProt Q14839).
Sequence of Chromodomain-helicase-DNA-binding protein 4 (Q14839 whole entry): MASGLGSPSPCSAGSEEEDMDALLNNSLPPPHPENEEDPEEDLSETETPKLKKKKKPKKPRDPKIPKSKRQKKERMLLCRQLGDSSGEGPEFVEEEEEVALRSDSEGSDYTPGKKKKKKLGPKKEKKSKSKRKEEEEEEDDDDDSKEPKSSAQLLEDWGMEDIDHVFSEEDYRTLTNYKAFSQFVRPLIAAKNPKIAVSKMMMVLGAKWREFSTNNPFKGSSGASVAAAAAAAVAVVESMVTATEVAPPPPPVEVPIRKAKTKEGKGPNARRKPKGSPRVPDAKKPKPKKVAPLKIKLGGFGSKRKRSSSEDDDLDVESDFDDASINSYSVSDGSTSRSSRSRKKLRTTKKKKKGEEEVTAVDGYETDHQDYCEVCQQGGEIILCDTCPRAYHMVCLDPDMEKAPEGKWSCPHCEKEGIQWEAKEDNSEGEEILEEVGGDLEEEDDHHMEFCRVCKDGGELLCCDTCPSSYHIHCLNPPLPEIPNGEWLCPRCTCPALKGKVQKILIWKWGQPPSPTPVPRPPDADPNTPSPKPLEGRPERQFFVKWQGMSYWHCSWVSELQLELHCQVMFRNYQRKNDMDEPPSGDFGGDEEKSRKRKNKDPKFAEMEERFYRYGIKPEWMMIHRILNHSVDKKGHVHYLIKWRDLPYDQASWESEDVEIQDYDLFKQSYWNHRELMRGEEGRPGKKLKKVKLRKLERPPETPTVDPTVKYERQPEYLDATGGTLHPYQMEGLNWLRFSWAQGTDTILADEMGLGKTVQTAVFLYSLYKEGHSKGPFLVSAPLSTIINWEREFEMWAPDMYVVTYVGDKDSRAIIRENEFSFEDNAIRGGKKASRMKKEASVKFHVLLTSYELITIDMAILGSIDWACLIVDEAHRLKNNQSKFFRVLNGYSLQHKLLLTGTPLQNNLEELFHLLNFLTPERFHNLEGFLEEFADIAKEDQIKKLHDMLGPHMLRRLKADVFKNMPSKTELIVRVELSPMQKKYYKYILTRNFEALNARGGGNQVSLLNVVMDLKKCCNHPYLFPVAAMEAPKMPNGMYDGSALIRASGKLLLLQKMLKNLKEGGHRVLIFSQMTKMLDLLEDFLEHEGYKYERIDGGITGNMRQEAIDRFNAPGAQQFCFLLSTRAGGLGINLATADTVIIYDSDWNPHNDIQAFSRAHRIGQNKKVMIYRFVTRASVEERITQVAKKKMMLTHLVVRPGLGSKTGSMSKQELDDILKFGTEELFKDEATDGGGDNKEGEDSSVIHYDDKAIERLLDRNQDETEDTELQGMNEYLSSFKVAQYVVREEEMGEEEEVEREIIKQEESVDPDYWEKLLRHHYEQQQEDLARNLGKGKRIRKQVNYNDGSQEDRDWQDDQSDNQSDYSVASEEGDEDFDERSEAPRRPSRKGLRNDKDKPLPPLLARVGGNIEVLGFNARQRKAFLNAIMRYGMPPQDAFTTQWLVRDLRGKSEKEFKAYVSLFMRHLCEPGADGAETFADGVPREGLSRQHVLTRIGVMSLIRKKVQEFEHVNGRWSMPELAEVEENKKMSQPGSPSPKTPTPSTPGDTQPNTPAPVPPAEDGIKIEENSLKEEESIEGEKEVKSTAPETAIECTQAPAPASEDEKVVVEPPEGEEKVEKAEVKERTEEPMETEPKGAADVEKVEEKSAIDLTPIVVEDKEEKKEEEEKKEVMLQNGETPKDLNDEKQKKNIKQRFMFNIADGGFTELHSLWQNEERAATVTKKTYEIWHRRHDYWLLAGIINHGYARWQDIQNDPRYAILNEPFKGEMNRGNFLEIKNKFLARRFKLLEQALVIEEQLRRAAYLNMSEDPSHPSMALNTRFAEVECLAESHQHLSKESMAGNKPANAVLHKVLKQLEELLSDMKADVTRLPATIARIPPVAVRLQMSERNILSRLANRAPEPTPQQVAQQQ
The target in assay [4] is Maternal embryonic leucine zipper kinase (Homo sapiens, UniProt Q14680).
In assay [5] the target is T2, Serine/threonine-protein kinase TAO3 (Homo sapiens, UniProt Q9H2K8).
T2 sequence (Q9H2K8 whole entry): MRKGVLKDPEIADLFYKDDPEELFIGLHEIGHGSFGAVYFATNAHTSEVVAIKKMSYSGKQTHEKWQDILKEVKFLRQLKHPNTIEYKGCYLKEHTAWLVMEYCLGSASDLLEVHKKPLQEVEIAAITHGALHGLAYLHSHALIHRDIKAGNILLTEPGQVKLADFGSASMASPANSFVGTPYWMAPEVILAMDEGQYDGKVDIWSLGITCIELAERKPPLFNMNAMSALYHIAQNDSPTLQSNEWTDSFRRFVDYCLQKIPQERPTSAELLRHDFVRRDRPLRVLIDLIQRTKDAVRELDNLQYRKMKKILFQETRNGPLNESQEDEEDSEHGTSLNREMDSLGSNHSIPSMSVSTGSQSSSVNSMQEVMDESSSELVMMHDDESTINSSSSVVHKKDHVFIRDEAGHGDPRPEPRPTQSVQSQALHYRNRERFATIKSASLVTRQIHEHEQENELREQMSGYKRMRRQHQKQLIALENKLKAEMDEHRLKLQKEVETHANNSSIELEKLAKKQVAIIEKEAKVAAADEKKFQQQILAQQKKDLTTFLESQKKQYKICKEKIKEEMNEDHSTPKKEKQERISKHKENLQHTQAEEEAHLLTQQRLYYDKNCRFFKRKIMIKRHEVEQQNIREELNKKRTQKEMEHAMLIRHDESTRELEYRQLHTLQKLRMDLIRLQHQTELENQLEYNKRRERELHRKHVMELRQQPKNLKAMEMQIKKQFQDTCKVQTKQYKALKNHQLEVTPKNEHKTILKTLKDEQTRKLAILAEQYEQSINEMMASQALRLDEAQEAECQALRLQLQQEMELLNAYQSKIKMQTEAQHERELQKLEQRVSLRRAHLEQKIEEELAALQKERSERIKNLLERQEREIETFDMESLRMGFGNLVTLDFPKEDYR

The target in assay [6] is Activin receptor type-2B (Homo sapiens, UniProt Q13705).
Sequence of Activin receptor type-2B (Q13705 whole entry): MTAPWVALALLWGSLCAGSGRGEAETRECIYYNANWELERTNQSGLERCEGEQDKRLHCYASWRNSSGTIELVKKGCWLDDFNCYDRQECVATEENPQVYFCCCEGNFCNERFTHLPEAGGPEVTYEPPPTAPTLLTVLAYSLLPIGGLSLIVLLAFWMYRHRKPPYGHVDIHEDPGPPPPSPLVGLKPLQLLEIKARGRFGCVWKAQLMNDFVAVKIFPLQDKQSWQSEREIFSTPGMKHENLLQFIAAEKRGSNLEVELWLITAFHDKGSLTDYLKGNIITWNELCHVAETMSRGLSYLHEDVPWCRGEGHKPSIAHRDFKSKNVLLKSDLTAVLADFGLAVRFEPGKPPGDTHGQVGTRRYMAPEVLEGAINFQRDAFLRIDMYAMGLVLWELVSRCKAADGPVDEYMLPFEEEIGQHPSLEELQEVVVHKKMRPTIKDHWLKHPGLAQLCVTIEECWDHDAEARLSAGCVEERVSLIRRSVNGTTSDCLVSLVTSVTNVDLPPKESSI
Assay [7] addresses Interleukin-1 receptor-associated kinase 1 (Homo sapiens, UniProt P51617).
Assay [8] addresses T3, Ribosyldihydronicotinamide dehydrogenase [quinone] (Homo sapiens, UniProt P16083).
T3 sequence (P16083 whole entry): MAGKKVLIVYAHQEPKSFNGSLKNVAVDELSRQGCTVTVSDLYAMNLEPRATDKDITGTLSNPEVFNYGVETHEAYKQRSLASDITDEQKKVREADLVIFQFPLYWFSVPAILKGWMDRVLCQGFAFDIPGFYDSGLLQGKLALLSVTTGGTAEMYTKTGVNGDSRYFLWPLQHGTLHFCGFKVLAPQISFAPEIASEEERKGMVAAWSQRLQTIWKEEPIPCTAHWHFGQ

In assay [9] the target is T4, Serine/threonine-protein kinase STK11 (Homo sapiens, UniProt Q15831).
T4 sequence (Q15831 whole entry): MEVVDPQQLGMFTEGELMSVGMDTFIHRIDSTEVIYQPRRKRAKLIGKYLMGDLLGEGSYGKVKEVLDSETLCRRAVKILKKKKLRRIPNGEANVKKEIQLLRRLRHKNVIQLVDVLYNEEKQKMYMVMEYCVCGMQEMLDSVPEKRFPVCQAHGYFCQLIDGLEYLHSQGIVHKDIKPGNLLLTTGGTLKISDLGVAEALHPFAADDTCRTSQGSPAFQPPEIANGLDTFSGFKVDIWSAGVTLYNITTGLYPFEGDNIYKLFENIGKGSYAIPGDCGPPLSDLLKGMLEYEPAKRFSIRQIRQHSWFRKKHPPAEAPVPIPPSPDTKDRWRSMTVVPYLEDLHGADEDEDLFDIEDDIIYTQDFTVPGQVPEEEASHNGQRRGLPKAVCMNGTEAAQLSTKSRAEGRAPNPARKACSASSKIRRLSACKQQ

Assay [10] concerns the target Cyclin-dependent kinase 5 (Homo sapiens, UniProt Q00535).
Assay [11] addresses Serine/threonine-protein kinase PAK 4 (Homo sapiens, UniProt O96013).
Assay [12] deals with Serine/threonine-protein kinase N2 (Homo sapiens, UniProt Q16513).
Sequence of Serine/threonine-protein kinase N2 (Q16513 whole entry): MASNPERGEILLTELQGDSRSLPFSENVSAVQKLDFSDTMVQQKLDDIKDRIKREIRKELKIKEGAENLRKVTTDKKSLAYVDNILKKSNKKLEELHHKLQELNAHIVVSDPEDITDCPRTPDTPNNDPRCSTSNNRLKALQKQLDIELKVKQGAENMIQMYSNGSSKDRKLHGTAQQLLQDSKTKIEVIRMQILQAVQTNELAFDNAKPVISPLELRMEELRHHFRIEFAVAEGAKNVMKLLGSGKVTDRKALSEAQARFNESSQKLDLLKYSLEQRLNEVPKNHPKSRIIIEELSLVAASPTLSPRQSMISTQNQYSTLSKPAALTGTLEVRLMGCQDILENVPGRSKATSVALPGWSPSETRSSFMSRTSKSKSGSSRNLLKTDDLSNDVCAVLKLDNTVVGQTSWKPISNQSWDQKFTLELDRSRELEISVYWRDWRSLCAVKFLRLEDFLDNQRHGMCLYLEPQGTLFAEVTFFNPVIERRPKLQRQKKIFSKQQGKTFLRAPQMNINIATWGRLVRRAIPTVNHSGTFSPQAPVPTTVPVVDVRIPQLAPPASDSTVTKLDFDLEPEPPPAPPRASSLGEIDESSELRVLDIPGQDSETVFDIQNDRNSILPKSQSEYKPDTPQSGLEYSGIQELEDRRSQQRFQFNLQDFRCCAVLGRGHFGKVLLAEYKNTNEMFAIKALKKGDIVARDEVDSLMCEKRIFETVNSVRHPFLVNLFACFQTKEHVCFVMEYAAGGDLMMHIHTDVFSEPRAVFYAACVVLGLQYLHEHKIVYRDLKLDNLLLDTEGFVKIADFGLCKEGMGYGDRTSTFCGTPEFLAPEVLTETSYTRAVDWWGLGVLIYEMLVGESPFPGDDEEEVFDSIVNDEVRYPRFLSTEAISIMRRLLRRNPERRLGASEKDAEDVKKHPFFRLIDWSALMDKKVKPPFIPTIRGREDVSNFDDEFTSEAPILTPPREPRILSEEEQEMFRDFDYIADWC
Assay [13] addresses Mitogen-activated protein kinase 8 (Homo sapiens, UniProt P45983).

Calls of active or inactive are those of the source. Cut-off read from the data, not from the text of the source, for most assays here: actives have a measured Kd and inactives only a lower limit.
Note: in the data inactive means no Kd found up to 30 µM.

Sequence of Mitogen-activated protein kinase 8 (P45983 whole entry): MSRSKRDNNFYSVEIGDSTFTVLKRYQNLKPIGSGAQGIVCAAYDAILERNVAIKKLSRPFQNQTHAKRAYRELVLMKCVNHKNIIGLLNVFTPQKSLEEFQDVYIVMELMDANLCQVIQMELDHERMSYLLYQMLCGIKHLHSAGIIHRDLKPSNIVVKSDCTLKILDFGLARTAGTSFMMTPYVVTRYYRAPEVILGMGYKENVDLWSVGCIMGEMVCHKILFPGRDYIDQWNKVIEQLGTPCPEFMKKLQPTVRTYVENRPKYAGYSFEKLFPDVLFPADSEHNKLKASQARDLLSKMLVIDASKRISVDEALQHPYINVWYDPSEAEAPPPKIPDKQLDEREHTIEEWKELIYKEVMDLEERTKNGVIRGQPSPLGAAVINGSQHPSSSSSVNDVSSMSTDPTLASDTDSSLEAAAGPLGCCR
Sequence of Interleukin-1 receptor-associated kinase 1 (P51617 whole entry): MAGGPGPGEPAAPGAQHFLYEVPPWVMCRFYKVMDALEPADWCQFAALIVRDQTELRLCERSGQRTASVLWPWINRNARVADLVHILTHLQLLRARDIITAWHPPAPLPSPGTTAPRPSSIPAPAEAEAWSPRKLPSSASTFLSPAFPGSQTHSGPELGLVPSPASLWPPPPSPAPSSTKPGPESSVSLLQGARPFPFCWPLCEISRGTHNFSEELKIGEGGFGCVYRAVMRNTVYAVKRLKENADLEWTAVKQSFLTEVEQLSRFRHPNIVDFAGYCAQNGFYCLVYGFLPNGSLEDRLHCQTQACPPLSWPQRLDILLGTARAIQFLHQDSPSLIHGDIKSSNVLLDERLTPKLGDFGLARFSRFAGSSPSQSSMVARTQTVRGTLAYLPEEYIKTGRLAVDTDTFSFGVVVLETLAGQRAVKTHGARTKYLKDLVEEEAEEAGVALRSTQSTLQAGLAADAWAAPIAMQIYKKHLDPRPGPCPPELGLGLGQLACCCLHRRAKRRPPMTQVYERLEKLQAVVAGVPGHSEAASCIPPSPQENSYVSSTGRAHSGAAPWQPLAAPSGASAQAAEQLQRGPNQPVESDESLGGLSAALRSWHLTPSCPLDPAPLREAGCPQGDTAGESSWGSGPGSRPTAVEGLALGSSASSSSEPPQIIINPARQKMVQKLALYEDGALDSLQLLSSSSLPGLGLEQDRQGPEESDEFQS
Sequence of Cyclin-dependent kinase 5 (Q00535 whole entry): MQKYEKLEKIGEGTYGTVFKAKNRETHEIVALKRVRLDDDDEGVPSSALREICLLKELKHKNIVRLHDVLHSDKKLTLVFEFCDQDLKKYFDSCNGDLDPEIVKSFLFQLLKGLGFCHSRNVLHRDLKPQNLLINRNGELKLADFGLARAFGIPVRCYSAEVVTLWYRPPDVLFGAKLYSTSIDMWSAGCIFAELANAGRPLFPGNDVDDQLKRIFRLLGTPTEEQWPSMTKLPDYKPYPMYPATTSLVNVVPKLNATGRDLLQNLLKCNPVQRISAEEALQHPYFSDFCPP

The Kd is the free concentration of one partner at which half of the binding sites on the other are occupied at equilibrium, for simple one-to-one binding. For `C=CCn1c(=O)c2cnc(Nc3ccc(N4CCN(C)CC4)cc3)nc2n1-c1cccc(C(C)(C)O)n1` [ADAVOSERTIB], the Kd in assay [1], in assay [2], in assay [3], in [4], in assay [5] and in assay [6] was > 30 µM (inactive) throughout. The Kd in assay [7], in [8] and in [9] was > 30 µM (inactive) each time.
Regarding `CCOc1ccn(-c2ccc(F)cc2)c(=O)c1C(=O)Nc1ccc(Oc2ccnc(N)c2Cl)c(F)c1` [BMS-777607], the Kd in assay [1], in assay [10], in [2], in assay [3], in assay [4] and in [11] was > 30 µM (inactive) throughout. Besides, the Kd in assay [5], in assay [12], in [13], in assay [6], in assay [8] and in assay [9] was > 30 µM (inactive) each time.
On to `O[C@H]1CC[C@H](Nc2ncc3nc(Nc4c(F)cc(F)cc4F)n([C@H]4CCOC4)c3n2)CC1` [TANZISERTIB], for which the Kd in assay [1], in assay [10], in [2], in [3], in assay [4] and in [11] was > 30 µM (inactive) each time. In addition, the Kd in assay [5], in [12], in assay [6], in assay [7], in assay [8] and in assay [9] was > 30 µM (inactive) in each case.
On to `CC1(COc2ccc3c(c2)ncn3-c2ccc3cccc(N4CCC(N)CC4)c3n2)COC1` [CRENOLANIB], for which the Kd in assay [1] was 4.97 µM (active); in assay [2], > 30 µM (inactive); in assay [4], 4.23 µM (active); in assay [5] it was > 30 µM (inactive); in [12], 1.21 µM (active); in assay [13], > 30 µM (inactive). In addition, the Kd in [6] and in assay [9] was > 30 µM (inactive) throughout.
As for `O=S(=O)(c1cccc2cnccc12)N1CCCNCC1` [FASUDIL], the Kd in [1] is > 30 µM (inactive); in assay [2], > 30 µM (inactive); in assay [3], > 30 µM (inactive); in assay [4], 1.92 µM (active); in assay [11], > 30 µM (inactive); in assay [5], > 30 µM (inactive). In addition, the Kd in [6] is > 30 µM (inactive); in [7], > 30 µM (inactive); in assay [8] it was 2.45 µM (active); in [9], > 30 µM (inactive).
As for `COc1ccc(-c2ccc3ncc4c(c3c2)n(-c2ccc(N3CCNCC3)c(C(F)(F)F)c2)c(=O)n4C)cn1` [BGT-226 FREE BASE], the Kd is 0.922 µM (active) in assay [1]; > 30 µM (inactive) in assay [10]; > 30 µM (inactive) in assay [2]; > 30 µM (inactive) in assay [3]; 4.08 µM (active) in assay [4]; > 30 µM (inactive) in assay [11]. Moreover, the Kd in [5], in assay [12], in assay [13], in assay [6], in assay [7] and in assay [8] was > 30 µM (inactive) each time.
Turning to `CNC(=O)c1ccc(Nc2ncc(C(F)(F)F)c(NCc3nccnc3N(C)S(C)(=O)=O)n2)cc1` [DEFACTINIB], the Kd in [1] is 9.12 µM (active); in assay [10] it was 1.41 µM (active); in assay [2], > 30 µM (inactive); in [3], > 30 µM (inactive); in assay [11] it was 22 µM (active); in [5] it was 10.8 µM (active). In addition, the Kd in [12], in assay [13], in [6], in assay [7], in assay [8] and in assay [9] was > 30 µM (inactive) throughout.
Regarding `N#CCNC(=O)c1ccc(-c2ccnc(Nc3ccc(N4CCOCC4)cc3)n2)cc1` [MOMELOTINIB], the Kd in [1], in assay [10], in [2], in assay [11], in assay [12] and in [6] was > 30 µM (inactive) each time. Besides, the Kd in assay [7], in [8] and in [9] was > 30 µM (inactive) each time.
Turning to `CN1CCN(c2nc(C3=C(c4c[nH]c5ccccc45)C(=O)NC3=O)c3ccccc3n2)CC1` [SOTRASTAURIN], the Kd in assay [1], in assay [10], in assay [2], in assay [3], in assay [4] and in assay [11] was > 30 µM (inactive) in each case. The Kd in assay [5], in assay [13], in assay [6], in [7], in assay [8] and in [9] was > 30 µM (inactive) throughout.
For the compound `CC(C)CC(=O)Nc1[nH]nc2c1CN(C(=O)C1CCN(C)CC1)C2(C)C` [PHA-793887], the Kd in [1] was > 30 µM (inactive); in [10], 0.135 µM (active); in assay [2], > 30 µM (inactive); in assay [3] it was > 30 µM (inactive); in assay [11] it was 0.864 µM (active); in [12], > 30 µM (inactive). Also, the Kd in assay [13], in assay [6] and in assay [8] was > 30 µM (inactive) each time.
